Results on six compounds are retold here after patent EP1037627B1, “USE OF 11-(3-DIMETHYLAMINOPROPYLIDENE)-6,11-DIHYDRODIBENZ[B,E]OXEPIN-2-ACETIC ACID AND OF PHARMACEUTICALLY ACCEPTABLE SALTS THEREOF FOR THE MANUFACTURE OF A MEDICAMENT FOR THE TREATMENT OF NON-[…] OPHTHALMIC INFLAMMATORY DISORDERS AND FOR THE PREVENTION OF OCULAR NEOVASCULARIZATION” (Alcon Laboratories, Inc., priority 1998, dated 2000).

The IC50 is the point on the concentration scale where inhibition reaches its midpoint. As usually defined, the Ki is the dissociation constant of the complex between target and ligand, obtained from inhibition or displacement.

“And” between values parts separate entries of the source, which are not always exact repeats. Equal entries are not always repeated. Structures can show the parent of a compound that is named as a salt. Where two headings read alike, the source gives them in different places.

Test [1] deals with IL-8 Secretion in Human Conjunctival Epithelial Cells. The experiment in a line: Inhibition of histamine-stimulated IL-8 secretion in cultured human conjunctival epithelial cells (ELISA). Format: cell-based. The following applies: for IC50: Homo sapiens, read-out: IL-8 IC50. The text has this:
(§1) Methods detailing the preparation of primary epithelial cell cultures and cytokine release studies using these cells have been described. See […], et al., "Secretion of proinflammatory cytokines by human conjunctival epithelial cells," Ocul Immunol Inflamm., 5:117-128 (1997). Briefly, cultures of human conjunctival epithelial cells were initiated from donor tissues obtained within eight hours post mortem by various eye banks. The tissues were enzymatically digested overnight. Epithelial cells were gently scraped from the tissue surface, dissociated into a single cell suspension, and cultured in keratinocyte growth medium (Clonetics® , San Diego, CA). Cells were used only through passage 6. Cultures were maintained in a preconfluent state to prevent differentiation. Cells were identified as epithelial by positive keratin staining. […] Cells were plated at 2x10^4 cells/well and cultured overnight at 5% CO2/37°C. The following day, fresh medium containing test compound was added directly to wells and the cells were incubated for 30 minutes prior to 24-hour stimulation with histamine (30 μM). Three separate culture wells were used for each treatment group. At harvest, supernatants were collected, centrifuged at 200 x g, and stored at -20°C. Samples were analyzed for IL-6 and IL-8 by ELISA (R&D Systems, Minneapolis, MN) as directed by the manufacturer. The sensitivities of each ELISA are as follows: […] The antagonist potency (IC50) was defined as the concentration of the drug required to produce 50% inhibition of the agonist-stimulated functional response. Data derived from the cytokine assays were calculated as mean and standard error (SEM) values which represent the variability among identically treated culture wells. The dose-dependent effect of pharmacological agents and IC50's were determined by linear regression. Data are expressed as mean ± S.E.M. from 3 - 5 independent experiments.
In general terms: In an ELISA, binding on a coated surface is turned into a signal by an enzyme label.

Test [2] relates to IL-6 Secretion in Human Conjunctival Epithelial Cells. The experiment in a line: Inhibition of histamine-stimulated IL-6 secretion in cultured human conjunctival epithelial cells (ELISA). Format: cell-based. The following applies: for IC50: Homo sapiens, read-out: IL-6 IC50.
Description: as §1

The target of a further test is histamine H1-receptor. The following applies: published values (Sharif et al. 1994; Yanni et al. 1997), read-out: H1 Binding Ki, cited from earlier work.
Where [3] appears, read: HCE cells, 30 minutes preincubation with test compound, then 24-hour stimulation with histamine (30 µM), ELISA.
Where [4] appears, read: IL-6 and IL-8 secretion IC50 compared with H1 binding affinity.
The mark [5] stands for this setting: HCE exposed to 30 µM of histamine.

With `c1ccc(CN(CC2=NCCN2)c2ccccc2)cc1` [Antazoline, 4,5-Dihydro-N-phenyl-N-(phenylmethyl)-1 H-imidazole-2-methanamine], the IC50 in test [1] (setting [3]) turned out to be 652 nM; in test [2] (setting [3]), 1010 nM. In test [2] (setting [4]), the “less potent inhibitors of IL-6 and IL-8 secretion than predicted from their histamine H1-receptor binding affinities” value is reported as 20 - 140 fold. In addition, the Ki is 32 to 39 nM at histamine H1-receptor (listed as antazoline) and 38.4 nM on histamine H1-receptor.
As to `CCOCCn1c(N2CCCN(C)CC2)nc2ccccc21` [Emedastine, 1H-Benzimidazole,1-(2-ethoxyethyl)-2-(hexahydro-4-methyl-1H-1,4-diazepin-1-yl),(E)-2-butenedioate (1:2)], the IC50 was found to be 4 nM in test [1] (setting [3]) and 2.5 nM in test [2] (setting [3]). In addition, at histamine H1-receptor, the Ki is 1.22 nM.
On to `C[C@@H]1CN([C@H]2CC[C@](C#N)(c3ccc(F)cc3)CC2)CC[C@]1(C(=O)O)c1ccccc1` [Levocabastine, (-)-traps-1-[cis-4-Cyano-4-(p-fluorophenyl)cyclohexyl]-3-methyl-4-phenylisonipecotic acid monohydrochloride], for which the figures for the IC50 in test [1] (setting [3]) and in test [2] (setting [3]) were 11.9 nM and 25.1 nM, respectively. In addition, the Ki on histamine H1-receptor was 52.6 nM.
On to `CN(C)CC/C=C1/c2ccccc2COc2ccc(CC(=O)O)cc21` [Olopatadine, Z-11-(3-Dimethylaminopropylidene)-6,11-dihydrodibenz[b,e]oxepin-2-acetic acid], for which the IC50 in test [1] (HCE) was 1.7 nM; in test [2] (HCE) it was 5.5 nM. Moreover, the “more potent as an inhibitor of cytokine secretion than predicted from binding data” value in test [2] (setting [4]) was “approximately 10 fold”. On histamine H1-receptor, the Ki was 36 nM and 32 to 39 nM.
With `CN(C)CCC(c1ccccc1)c1ccccn1` (stereo not shown) [Pheniramine, N,N-Dimethyl-γ-phenyl-2-pyridine-propanamine], the IC50 in test [1] (setting [3]) amounted to 1220 nM; in test [2] (setting [3]), 4830 nM. For the same compound, the “less potent inhibitors of IL-6 and IL-8 secretion than predicted from their histamine H1-receptor binding affinities” value in test [2] (setting [4]) was 20 - 140 fold. The inhibition constant (Ki) at histamine H1-receptor (listed as pheniramine) is 32 to 39 nM; on histamine H1-receptor it was 33.9 nM.
`NCCc1c[nH]cn1` [histamine]: the “increased IL-8 secretion” value in test [1] (setting [5]) worked out at 1.80 ± 0.28 fold above basal levels. In test [2] (setting [5]), the “increased IL-6 secretion” value is on record as 1.59 ± 0.19 fold above basal levels.
